Assay type in all cases: cell-based
One assay deals with NCI-H358. In words: Anti-proliferation assay (CellTiter-Glo 2.0), combination index, NCI-H358. The following applies: for Description (combinatory effect by CI): Compound 1:combination drug molar ratio 1:9. Summed up:
(§1)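 Cells were seeded at 500 cells/well in medium with 10% FBS and exposed to agents at 8 concentrations including 0 nM, for 3 days at 37° C under 5% CO2. Survival was read by CellTiter-Glo 2.0 luminescence, and combination index was determined at each combined concentration.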
(In general: Cellular ATP, detected with luciferase, serves as a proxy for viable cell number.)

The next assay deals with RMG-I. In words: Anti-proliferation assay (CellTiter-Glo 2.0), combination index, RMG-I. How it is done:
(§2) Cell lines were obtained from ATCC or Health Science Research Resources Bank.
(§3) 384 well culture plate (781086, Greiner Bio-One International) was used for cell survival rate measurement assay. Each cell lines were collected by ordinary method, then suspended in indicated medium containing 10% fetal bovine serum in table 3. The number of cells seeded per well was set to 500 cells/20 μL. After incubation at 37° C. for 24 hours under 5% CO2, Compound 1 and additional compound having an antitumor effect or a vehicle (DMSO) was added to each well by using D300e Digital Dispenser (Tecan). The concentration of Compound 1 was set to 10 concentrations. The concentration of each anti-cancer reagents set to 8 concentrations including 0 nM. After adding the medicine to the cells, the cells were further incubated at 37° C. for 3 days under 5% CO2. Cell survival rates were calculated by adding 20 μL of CellTiter-Glo(registered trademark) 2. 0 (Promega) solution to each well, incubating the cells at room temperature for 10 minutes, and then measuring the chemiluminescence intensity of each well using a plate reader (ARVO).
(§4) A combination index (CI) value at each combined concentration of the medicines was determined.

Another assay relates to MV-4-11. In words: Anti-proliferation assay (CellTiter-Glo 2.0), combination index, MV-4-11. As to the method: as §2, §3, §4
Another assay deals with RT4. The assay is described as follows: Anti-proliferation assay (CellTiter-Glo 2.0), combination index, RT4. In a few lines:
as §1

A further assay concerns MKN45. In words: Anti-proliferation assay (CellTiter-Glo 2.0), combination index, MKN45. In a few lines: as §1
The mark [1] stands for this setting: Compound 1 41.2 nmol/L + Palbociclib 1110 nmol/L, molar ratio 1:27.
Setting [2] is: Compound 1 123 nmol/L + Palbociclib 3330 nmol/L, molar ratio 1:27.
The mark [3] stands for this setting: Compound 1 370 nmol/L + Palbociclib 10000 nmol/L, molar ratio 1:27.
[4] abbreviates: Compound 1 13.7 nmol/L + Palbociclib 1110 nmol/L, molar ratio 1:81.
Setting [5] is: Compound 1 41.2 nmol/L + Palbociclib 3330 nmol/L, molar ratio 1:81.
Where [6] appears, read: Compound 1 123 nmol/L + Palbociclib 10000 nmol/L, molar ratio 1:81.
[7] abbreviates: Compound 1 1.52 nmol/L + Palbociclib 123 nmol/L, molar ratio 1:81.
Where [8] appears, read: Compound 1 4.57 + combination drug 370 nmol/L (1:81).
Setting [9] is: Compound 1 13.7 + combination drug 1110 nmol/L (1:81).
The mark [10] stands for this setting: Compound 1 41.2 + combination drug 3330 nmol/L (1:81).
The mark [11] stands for this setting: Compound 1:combination drug molar ratio 1:81.
Where [12] appears, read: Compound 1 41.2 + combination drug 370 nmol/L (1:9).
Setting [13] is: Compound 1 123 + combination drug 1110 nmol/L (1:9).
[14] abbreviates: Compound 1 370 + combination drug 3330 nmol/L (1:9).
[15] abbreviates: Compound 1 13.7 + combination drug 13.7 nmol/L (1:1).
The mark [16] stands for this setting: Compound 1 41.2 + combination drug 41.2 nmol/L (1:1).
Where [17] appears, read: Compound 1 123 + combination drug 123 nmol/L (1:1).
The mark [18] stands for this setting: Compound 1 123 + combination drug 10000 nmol/L (1:81).
[19] abbreviates: Compound 1 1.52 + combination drug 123 nmol/L (1:81).
[20] abbreviates: Compound 1 13.7 + combination drug 370 nmol/L (1:27).
Where [21] appears, read: Compound 1 41.2 + combination drug 1110 nmol/L (1:27).
The mark [22] stands for this setting: Compound 1 123 + combination drug 3330 nmol/L (1:27).
Setting [23] is: Compound 1 370 + combination drug 10000 nmol/L (1:27).
Setting [24] is: Compound 1:combination drug molar ratio 1:27.
Where [25] appears, read: Compound 1 1110 + combination drug 10000 nmol/L (1:9).
The mark [26] stands for this setting: Compound 1:combination drug molar ratio 1:9.
Setting [27] is: Compound 1 4.57 + combination drug 123 nmol/L (1:27).

Experimental findings from patent US20230146795A1, “ENHANCEMENT OF ANTI-TUMOR ACTIVITY OF SHP2 INHIBITOR PYRIMIDINONE IN COMBINATION WITH NOVEL CANCER MEDICINES IN CANCERS” (TAIHO PHARMACEUTICAL CO., LTD., priority 2020, published 2023) are described below.

For `CC(=O)c1c(C)c2cnc(Nc3ccc(N4CCNCC4)cn3)nc2n(C2CCCC2)c1=O` [Palbociclib], the CI in the assay with NCI-H358 (setting [1]) was found to be 0.774; in the assay with NCI-H358 (setting [2]), 0.695; with NCI-H358 (setting [3]), 0.833; in the assay with RMG-I (setting [4]), 0.411; in the assay with RMG-I (setting [5]), 0.271; in the assay on RMG-I (setting [6]), 0.225. In addition, the CI in the assay on MV-4-11 (setting [7]) was determined as 0.827; in the assay on MV-4-11 (setting [4]), 0.520; with MV-4-11 (setting [5]), 0.699; in the assay with MV-4-11 (setting [6]), 0.565. Also, the Fa in the assay on NCI-H358 (setting [1]) amounted to 0.1141; with NCI-H358 (setting [2]), 0.2564; in the assay on NCI-H358 (setting [3]) it was 0.4277; in the assay with RMG-I (setting [4]), 0.3192; in the assay on RMG-I (setting [5]), 0.4189; with RMG-I (setting [6]) it was 0.5120. Also, the Fa was 0.1698 with MV-4-11 (setting [7]), 0.6523 with MV-4-11 (setting [4]), 0.7944 in the assay on MV-4-11 (setting [5]) and 0.9297 in the assay with MV-4-11 (setting [6]). In the assay with MV-4-11 (combination effect, Compound 1 + Palbociclib, molar ratio 1:81), the Description result was “Synergy (0.3-0.7)”.
On to `CCN(CC)CCNC(=O)c1c(C)[nH]c(/C=C2\C(=O)Nc3ccc(F)cc32)c1C` [Sunitinib], for which the CI with RT4 (setting [8]) is given as 0.687; with RT4 (setting [9]), 0.392; in the assay on RT4 (setting [10]), 0.624; in the assay on NCI-H358 (setting [12]) it was 0.502; with NCI-H358 (setting [13]), 0.747; in the assay on NCI-H358 (setting [14]), 0.612. For the same compound, the CI with MV-4-11 (setting [15]) was 0.262; in the assay with MV-4-11 (setting [16]), 0.327; in the assay with MV-4-11 (setting [17]) it was 0.902; in the assay with MKN45 (setting [18]) it was 0.818. Also, the Fa with RT4 (setting [8]) worked out at 0.1808; in the assay with RT4 (setting [9]) it was 0.4883; with RT4 (setting [10]) it was 0.6270; with NCI-H358 (setting [12]) it was 0.4562; in the assay with NCI-H358 (setting [13]), 0.7002; with NCI-H358 (setting [14]), 0.9541. Also, the Fa in the assay on MV-4-11 (setting [15]) is given as 0.9463; in the assay with MV-4-11 (setting [16]) it was 0.9651; in the assay with MV-4-11 (setting [17]), 0.9666; with MKN45 (setting [18]), 0.8052. The “Description (combinatory effect by CI)” value in the assay with RT4 (setting [11]) and in the assay on NCI-H358 was “Synergy (0.3-0.7)” throughout.
In the case of `CC[C@H](Nc1ncnc2[nH]cnc12)c1nc2cccc(F)c2c(=O)n1-c1ccccc1` [Idelalisib], the CI with RMG-I (setting [19]) was determined as 0.778; with RMG-I (setting [9]) it was 0.511; in the assay with RMG-I (setting [10]), 0.333; in the assay on RMG-I (setting [18]), 0.570; in the assay on MV-4-11 (setting [19]), 0.301; with MV-4-11 (setting [8]), 0.600. For the same compound, the CI stood at 0.330 with MV-4-11 (setting [9]), 0.262 in the assay with MV-4-11 (setting [10]) and 0.273 in the assay with MV-4-11 (setting [18]). Moreover, the Fa in the assay with RMG-I (setting [19]) is listed as 0.0902; in the assay on RMG-I (setting [9]), 0.2747; in the assay with RMG-I (setting [10]) it was 0.5012; in the assay on RMG-I (setting [18]) it was 0.6059; in the assay with MV-4-11 (setting [19]), 0.2988; in the assay on MV-4-11 (setting [8]) it was 0.3705. The results for the Fa in the assay with MV-4-11 (setting [9]), in the assay with MV-4-11 (setting [10]) and in the assay with MV-4-11 (setting [18]) were 0.7136, 0.8924 and 0.9566, respectively. In addition, the “Description (combinatory effect by CI)” value in the assay on RMG-I (setting [11]) was “Synergy (0.3-0.7)”.
For the compound `COc1cc2c(Nc3ccc(Br)cc3F)ncnc2cc1OCC1CCN(C)CC1` [Vandetanib], the CI came to 0.486 with RT4 (setting [20]); 0.444 in the assay with RT4 (setting [21]); 0.570 in the assay with RT4 (setting [22]); 0.541 in the assay on RT4 (setting [23]); 0.322 in the assay on NCI-H358 (setting [12]); 0.300 in the assay on NCI-H358 (setting [13]). For the same compound, the CI in the assay with NCI-H358 (setting [14]) was determined as 0.589; with NCI-H358 (setting [25]) it was 0.733; with RMG-I (setting [12]), 0.428; in the assay on RMG-I (setting [13]) it was 0.938; in the assay on MV-4-11 (setting [8]), 0.912; in the assay with MV-4-11 (setting [9]), 0.557. The CI is given as 0.503 in the assay on MV-4-11 (setting [10]) and 0.294 in the assay with MV-4-11 (setting [18]). In addition, the Fa is given as 0.3118 in the assay on RT4 (setting [20]); 0.5143 in the assay on RT4 (setting [21]); 0.6645 in the assay on RT4 (setting [22]); 0.8261 in the assay on RT4 (setting [23]); 0.2982 in the assay on NCI-H358 (setting [12]); 0.5211 in the assay on NCI-H358 (setting [13]). The Fa in the assay on NCI-H358 (setting [14]) is given as 0.6208; with NCI-H358 (setting [25]), 0.8142; with RMG-I (setting [12]), 0.4951; with RMG-I (setting [13]), 0.5602; in the assay with MV-4-11 (setting [8]), 0.5454; with MV-4-11 (setting [9]) it was 0.8322. Moreover, the figures for the Fa with MV-4-11 (setting [10]) and in the assay on MV-4-11 (setting [18]) were 0.9448 and 0.9916, respectively. Moreover, the “Description (combinatory effect by CI)” value in the assay on RT4 (setting [24]), with NCI-H358 and with RMG-I (setting [26]) was “Synergy (0.3-0.7)” in each case.
Turning to `CC1(C)CCC(CN2CCN(c3ccc(C(=O)NS(=O)(=O)c4ccc(NCC5CCOCC5)c([N+](=O)[O-])c4)c(Oc4cnc5[nH]ccc5c4)c3)CC2)=C(c2ccc(Cl)cc2)C1` [Venetoclax], the CI in the assay with RT4 (setting [20]) came to 0.479; in the assay with RT4 (setting [21]), 0.497; in the assay with RT4 (setting [22]), 0.888; in the assay with RT4 (setting [23]), 0.888; in the assay with RMG-I (setting [13]) it was 0.687; in the assay with RMG-I (setting [14]), 0.601. Further, the CI with RMG-I (setting [25]) came to 0.668; in the assay on MV-4-11 (setting [15]), 0.424; in the assay on MV-4-11 (setting [16]), 0.080; in the assay with MV-4-11 (setting [17]), 0.007. The Fa in the assay on RT4 (setting [20]) came out at 0.1751; in the assay with RT4 (setting [21]), 0.3605; in the assay with RT4 (setting [22]), 0.5099; with RT4 (setting [23]) it was 0.8781; with RMG-I (setting [13]) it was 0.4133; in the assay with RMG-I (setting [14]) it was 0.5921. Also, the Fa in the assay on RMG-I (setting [25]) came out at 0.9240; with MV-4-11 (setting [15]) it was 0.7436; in the assay with MV-4-11 (setting [16]) it was 0.9696; with MV-4-11 (setting [17]), 0.9987. Further, the “Description (combinatory effect by CI)” value in the assay with RT4 (setting [24]) and in the assay on RMG-I (setting [26]) was “Synergy (0.3-0.7)” each time.
Take `CCc1cc2c(cc1N1CCC(N3CCOCC3)CC1)C(C)(C)c1[nH]c3cc(C#N)ccc3c1C2=O` [Alectinib]: the CI is listed as 0.829 in the assay with MV-4-11 (setting [27]); 0.484 with MV-4-11 (setting [20]); 0.609 with MV-4-11 (setting [21]); 0.187 with MV-4-11 (setting [22]); 0.631 in the assay on MV-4-11 (setting [23]); 0.905 in the assay with MKN45 (setting [21]). The CI in the assay on MKN45 (setting [23]) turned out to be 0.542. The Fa in the assay with MV-4-11 (setting [27]) was 0.5762; with MV-4-11 (setting [20]), 0.8852; in the assay on MV-4-11 (setting [21]) it was 0.9534; in the assay with MV-4-11 (setting [22]), 0.9967; in the assay on MV-4-11 (setting [23]) it was 0.9962; with MKN45 (setting [21]), 0.4310. Also, the Fa with MKN45 (setting [23]) was determined as 0.9801. Moreover, the “Description (combinatory effect by CI)” value with MKN45 (setting [24]) is “Synergy (0.3-0.7)”.
